Assay results: the supplement of paper PMC10307832

Columns and labels:
Assay in all cases: relative viability (nuclei count vs DMSO), 5 days (fraction); higher = more cells survive
[1] = tested on: LK-2
Procedure, shortened: (§1)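 The day after seeding in 1536-well plates, lung cancer cell lines were treated by pin tool with a single drug, or with a fixed anchor-drug dose together with five library-drug doses (not always all listed) in √10 steps. After 5 days, a combined fix-and-stain solution (final 0.05% Triton X-100, 1% formaldehyde, 1 ug/ml Hoechst) was added. Nuclei counted on 4× images gave relative viability as treated counts over vehicle counts, reported as the median of duplicate plates.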

[2] = tested on: COR-L23
Procedure, shortened: as §1

[3] = tested on: NCI-H3122
Procedure, shortened: as §1

[4] = tested on: HARA
Procedure, shortened: as §1

[5] = tested on: NCI-H441
Procedure, shortened: as §1

[6] = tested on: CAL-12T
Procedure, shortened: as §1

[7] = tested on: NCI-H2009
Procedure, shortened: as §1

[8] = tested on: NCI-H2170
Procedure, shortened: as §1

[9] = tested on: NCI-H727
Procedure, shortened: as §1

[10] = tested on: HCC-366
Procedure, shortened: as §1

[11] = tested on: NCI-H1650
Procedure, shortened: as §1

[12] = tested on: BEN
Procedure, shortened: as §1

[13] = tested on: COR-L 105
Procedure, shortened: as §1

[14] = tested on: NCI-H661
Procedure, shortened: as §1

[15] = tested on: NCI-H1437
Procedure, shortened: as §1

[16] = tested on: LU99A
Procedure, shortened: as §1

[17] = tested on: NCI-H1666
Procedure, shortened: as §1

[18] = tested on: 201T
Procedure, shortened: as §1

[19] = tested on: PC-14
Procedure, shortened: as §1

[20] = tested on: NCI-H2023
Procedure, shortened: as §1

[21] = tested on: EKVX
Procedure, shortened: as §1

[22] = tested on: ABC-1
Procedure, shortened: as §1

[23] = tested on: NCI-H838
Procedure, shortened: as §1

Clc1ccc(Nc2nnc(Cc3ccncc3)c3ccccc23)cc1 [Vatalanib] + CS(=O)(=O)N1CCN(Cc2cc3nc(-c4cccc5[nH]ncc45)nc(N4CCOCC4)c3s2)CC1 [Pictilisib] (partner 1 µM)
relative viability ([1]; first compound 0.04 µM): 0.531
relative viability ([1]; first compound 0.1265 µM): 0.561
relative viability ([1]; first compound 1.265 µM): 0.651
relative viability ([1]; first compound 4 µM): 0.569
relative viability ([2]; first compound 0.04 µM): 0.992
relative viability ([2]; first compound 0.1265 µM): 0.745
relative viability ([2]; first compound 0.4 µM): 0.854
relative viability ([2]; first compound 1.265 µM): 0.758
relative viability ([2]; first compound 4 µM): 0.64
relative viability ([3]; first compound 0.04 µM): 0.66
relative viability ([3]; first compound 0.1265 µM): 0.534
relative viability ([3]; first compound 0.4 µM): 0.646
relative viability ([3]; first compound 1.265 µM): 0.573
relative viability ([3]; first compound 4 µM): 0.593
relative viability ([4]; first compound 0.04 µM): 0.555
relative viability ([4]; first compound 0.1265 µM): 0.414
relative viability ([4]; first compound 0.4 µM): 0.351
relative viability ([4]; first compound 1.265 µM): 0.454
relative viability ([4]; first compound 4 µM): 0.369
relative viability ([5]; first compound 0.04 µM): 0.561
relative viability ([5]; first compound 0.1265 µM): 0.4
relative viability ([5]; first compound 0.4 µM): 0.592
relative viability ([5]; first compound 1.265 µM): 0.474
relative viability ([5]; first compound 4 µM): 0.501
relative viability ([6]; first compound 0.04 µM): 0.238
relative viability ([6]; first compound 0.1265 µM): 0.39
relative viability ([6]; first compound 1.265 µM): 0.446
relative viability ([6]; first compound 4 µM): 0.463
relative viability ([7]; first compound 0.04 µM): 0.977
relative viability ([7]; first compound 0.1265 µM): 0.656
relative viability ([7]; first compound 0.4 µM): 0.833
relative viability ([7]; first compound 1.265 µM): 0.798
relative viability ([7]; first compound 4 µM): 0.885
relative viability ([8]; first compound 0.04 µM): 0.319
relative viability ([8]; first compound 0.1265 µM): 0.331
relative viability ([8]; first compound 0.4 µM): 0.329
relative viability ([8]; first compound 1.265 µM): 0.356
relative viability ([8]; first compound 4 µM): 0.306
relative viability ([9]; first compound 0.04 µM): 0.421
relative viability ([9]; first compound 0.1265 µM): 0.355
relative viability ([9]; first compound 0.4 µM): 0.359
relative viability ([9]; first compound 1.265 µM): 0.399
relative viability ([9]; first compound 4 µM): 0.433
relative viability ([10]; first compound 0.04 µM): 0.137
relative viability ([10]; first compound 0.1265 µM): 0.196
relative viability ([10]; first compound 0.4 µM): 0.131
relative viability ([10]; first compound 1.265 µM): 0.0986
relative viability ([10]; first compound 4 µM): 0.11
relative viability ([11]; first compound 0.04 µM): 0.612
relative viability ([11]; first compound 0.1265 µM): 0.556
relative viability ([11]; first compound 0.4 µM): 0.578
relative viability ([11]; first compound 1.265 µM): 0.55
relative viability ([11]; first compound 4 µM): 0.592
relative viability ([12]; first compound 0.04 µM): 0.552
relative viability ([12]; first compound 0.1265 µM): 0.495
relative viability ([12]; first compound 0.4 µM): 0.529
relative viability ([12]; first compound 1.265 µM): 0.555
relative viability ([12]; first compound 4 µM): 0.65
relative viability ([13]; first compound 0.04 µM): 0.361
relative viability ([13]; first compound 0.1265 µM): 0.4
relative viability ([13]; first compound 0.4 µM): 0.276
relative viability ([13]; first compound 1.265 µM): 0.359
relative viability ([13]; first compound 4 µM): 0.377
relative viability ([14]; first compound 0.04 µM): 0.345
relative viability ([14]; first compound 0.1265 µM): 0.378
relative viability ([14]; first compound 0.4 µM): 0.392
relative viability ([14]; first compound 1.265 µM): 0.365
relative viability ([14]; first compound 4 µM): 0.34
relative viability ([15]; first compound 0.04 µM): 0.49
relative viability ([15]; first compound 0.1265 µM): 0.456
relative viability ([15]; first compound 0.4 µM): 0.518
relative viability ([15]; first compound 1.265 µM): 0.432
relative viability ([15]; first compound 4 µM): 0.432
relative viability ([16]; first compound 0.04 µM): 0.34
relative viability ([16]; first compound 0.1265 µM): 0.306
relative viability ([16]; first compound 0.4 µM): 0.375
relative viability ([16]; first compound 1.265 µM): 0.306
relative viability ([16]; first compound 4 µM): 0.312
relative viability ([17]; first compound 0.04 µM): 0.538
relative viability ([17]; first compound 0.1265 µM): 0.334
relative viability ([17]; first compound 0.4 µM): 0.33
relative viability ([17]; first compound 1.265 µM): 0.512
relative viability ([17]; first compound 4 µM): 0.499
relative viability ([18]; first compound 0.04 µM): 0.694
relative viability ([18]; first compound 0.1265 µM): 0.667
relative viability ([18]; first compound 0.4 µM): 0.706
relative viability ([18]; first compound 1.265 µM): 0.663
relative viability ([18]; first compound 4 µM): 0.722
relative viability ([19]; first compound 0.04 µM): 0.832
relative viability ([19]; first compound 0.1265 µM): 0.712
relative viability ([19]; first compound 0.4 µM): 0.693
relative viability ([19]; first compound 1.265 µM): 0.69
relative viability ([19]; first compound 4 µM): 0.679
relative viability ([20]; first compound 0.04 µM): 0.252
relative viability ([20]; first compound 0.1265 µM): 0.255
relative viability ([20]; first compound 0.4 µM): 0.318
relative viability ([20]; first compound 1.265 µM): 0.218
relative viability ([20]; first compound 4 µM): 0.226
relative viability ([21]; first compound 0.04 µM): 0.39
relative viability ([21]; first compound 0.1265 µM): 0.463
relative viability ([21]; first compound 0.4 µM): 0.391
relative viability ([21]; first compound 1.265 µM): 0.344
relative viability ([21]; first compound 4 µM): 0.396
relative viability ([22]; first compound 0.04 µM): 0.888
relative viability ([22]; first compound 0.1265 µM): 0.78
relative viability ([22]; first compound 0.4 µM): 0.877
relative viability ([22]; first compound 1.265 µM): 0.71
relative viability ([22]; first compound 4 µM): 0.784
relative viability ([23]; first compound 0.04 µM): 0.477
relative viability ([23]; first compound 0.1265 µM): 0.41
relative viability ([23]; first compound 0.4 µM): 0.518
relative viability ([23]; first compound 1.265 µM): 0.453
relative viability ([23]; first compound 4 µM): 0.467
